Laboratory results as given in patent US9914722B2, “Compounds for treating spinal muscular atrophy” (PTC Therapeutics Inc., priority 2012, dated 2018).
Entries after “also recorded” stand apart in the source; their conditions may differ.

Columns and labels:
[1] = tested on: SMN2 full length and Δ7 mRNA; assay: Endogenous SMN2 mRNA RT-qPCR splicing assay in cultured cells; type: cell-based, human; conditions: 24 hr, FIG. 4
Procedure: Endogenous SMN2 mRNA RT-qPCR Splicing Assay in Cultured Cells
The reverse transcription-quantitative PCR-based (RT-qPCR) assay is used to quantify the levels of the SMN2 full length and Δ7 mRNA in primary cells and cell lines containing the SMN2 gene treated with a test compound.
Protocol. GM03813 SMA patient cells (5,000 cells/well) are seeded in 200 μL, of cell culture medium (DMEM plus 10% FBS) in 96-well flat-bottom plates and the plate is immediately swirled to ensure proper dispersal of cells, forming an even monolayer of cells. Cells are allowed to attach for at least 4-6 hrs. Test compounds are serially diluted 3.16-fold in 100% DMSO to generate a 7-point concentration curve. A solution of test compound (1 μL, 200× in DMSO) is added to each test well and 1 μL, DMSO is added to each control well. The plate is incubated for 24 hrs in a cell culture incubator (37° C., 5% CO2, 100% relative humidity). The cells are then lysed in Cells-To-Ct lysis buffer and the lysate is stored at −80° C.
SMN2-specific spliced products and GAPDH mRNA are identified using the following primers and probes in Table 5. […] Since the SMA patient cells used in Example 3 contain only the SMN2 gene, RT-qPCR can quantify only SMN2 full-length and Δ7 mRNA. […]
The increase of SMN2 FL and decrease in SMN2 Δ7 mRNA relative to those in cells treated with vehicle control are determined from real-time PCR data using a modified ΔΔCt method (as described in Livak and Schmittgen, Methods, 2001, 25:402-8). The amplification efficiency (E) is calculated from the slope of the amplification curve for SMN2 FL, SMN2 Δ7, and GAPDH individually. The abundance of SMN2 FL, SMN2 Δ7 and GAPDH mRNA are then calculated as (1+E)^−Ct, where Ct is the threshold value for each amplicon. […]

[2] = tested on: gems (Smn-dependent nuclear speckles) in SMA patient fibroblast cells; assay: Gems count (Smn-dependent nuclear speckle count) assay; type: cell-based, human; conditions: Type 1 SMA patient fibroblasts, 48 hour, fluorescence microscopy, relative to DMSO, FIG. 7
Text: Gems Count (Smn-Dependent Nuclear Speckle Count) Assay
The level of Smn protein directly correlates with the amount of nuclear foci, also known as gems, produced upon staining the cell with a fluorescently labeled anti-Smn antibody (Liu and Dreyfuss, EMBO J., 1996, 15:3555). Gems are multi-protein complexes whose formation is nucleated by the Smn protein and the gems count assay is used to evaluate the level of Smn protein in the cell. As described herein, the gems count assay is used to quantify the level of Smn protein in SMA patient fibroblast cells treated with a test compound.
Protocol: Cells are thawed and incubated in DMEM-10% FBS for 72 hours, then trypsinized, counted and resuspended to 100,000 cells/mL in DMEM-10% FBS. The cell suspension (2 mL) is plated in a 6-well cell culture plate with a sterile cover slip and incubated for 3 to 5 hours. Test compounds are serially diluted 3.16-fold in 100% DMSO to generate a 7-point dilution curve. […]
Cell culture medium is aspirated from the wells containing cover slips and gently washed three times with cold PBS. […] The number of gems is counted per ≧150 nuclei and % activation is calculated using DMSO and 10 nM bortezomib as controls. For each test compound, the cells are examined at all wavelengths to identify test compounds with inherent fluorescence.

[3] = GM03813 Type 1 SMA patient fibroblasts, increasing concentrations

COc1ccc(-c2cc(=O)c3cc(N4CCN[C@@H](C)C4)ccc3o2)cc1F [Cpd 38, 2-(3-fluoro-4-methoxyphenyl)-6-[(3S)-3-methylpiperazin-1-yl]-4H-chromen-4-one]
SMN2 FL mRNA relative to vehicle [1, 3]: progressively more SMN2 FL mRNA | SMN2 Δ7 mRNA relative to vehicle [1, 3]: less SMN2 Δ7 mRNA | SMN2 alternative splicing ([1]; Type 1 SMA patient fibroblasts, rising concentrations): correction of SMN2 alternative splicing | nuclear speckle counts (gems) [2]: progressively more gems relative to cells treated with DMSO; also recorded: increase in nuclear speckle counts (gems)
